Reference: ChEMBL document CHEMBL3046643, “Effect of chronic treatment with new benzylidene-thiazolidine-2,4-dione (LPSF/GQ-06) with potential hypoglycemic on rat Leydig cell steroidogenesis” (Med Chem Res, 2013)
Active and inactive are the calls of the source. The calls are words filed in the database; no cut-off is given here.

Experiments:
[1] = tested on: Rattus norvegicus; experiment: Induction of steroidogenesis in Rattus norvegicus Wistar albino (rat) Leydig cells assessed as increase in 22(R)-OH-C-induced testosterone level at 5 mg/kg, po after 15 days by radioimmunoassay (reference value: 83.5 +/- 3.36 no unit); type: functional
[2] = tested on: Rattus norvegicus; experiment: Effect on P450scc expression in Rattus norvegicus Wistar albino (rat) Leydig cells at 5 mg/kg, po after 15 days by immunocytochemistry analysis relative to untreated control; type: functional, organism-based; parameters: dose 5 mg/kg
[3] = tested on: Rattus norvegicus; experiment: Induction of steroidogenesis in Rattus norvegicus Wistar albino (rat) Leydig cells assessed as increase in dbcAMP-induced testosterone level at 5 mg/kg, po after 15 days by radioimmunoassay (reference value: 69.83 +/- 1.85 no unit); type: functional
[4] = tested on: Rattus norvegicus; experiment: Toxicity in Rattus norvegicus Wistar albino (rat) Leydig cells assessed as morphological changes at 5 mg/kg, po after 15 days by electron transmission microscopic analysis relative to untreated control; type: organism-based; parameters: dose 5 mg/kg, route oral; conditions: in vivo, 360 h
[5] = tested on: Rattus norvegicus; experiment: Toxicity in Rattus norvegicus Wistar albino (rat) assessed as change in body weight at 5 mg/kg, po after 15 days; type: organism-based; parameters: dose 5 mg/kg, route oral; conditions: in vivo, 360 h
[6] = tested on: Rattus norvegicus; experiment: Toxicity in Rattus norvegicus Wistar albino (rat) assessed as change in relative dry weight of seminal vesicle at 5 mg/kg, po after 15 days; type: organism-based; parameters: dose 5 mg/kg, route oral; conditions: in vivo, 360 h
[7] = tested on: Rattus norvegicus; experiment: Induction of steroidogenesis in Rattus norvegicus Wistar albino (rat) Leydig cells assessed as increase in human chorionic gonadotropin-induced testosterone level at 5 mg/kg, po after 15 days by radioimmunoassay (reference value: 92.75 +/- 4.38 no unit); type: functional
[8] = tested on: Rattus norvegicus; experiment: Induction of steroidogenesis in Rattus norvegicus Wistar albino (rat) assessed as increase in total plasma testosterone level at 5 mg/kg, po after 15 days (reference value: 2.01 +/- 1.21 ng/mL); type: functional
[9] = tested on: Rattus norvegicus; experiment: Toxicity in Rattus norvegicus Wistar albino (rat) Leydig cells assessed as morphological changes at 5 mg/kg, po after 15 days by hematoxylin-eosin staining-based light microscopic analysis relative to untreated control; type: organism-based; parameters: dose 5 mg/kg, route oral; conditions: in vivo, 360 h
[10] = tested on: Rattus norvegicus; experiment: Toxicity in Rattus norvegicus Wistar albino (rat) assessed as change in relative weight of testis at 5 mg/kg, po after 15 days; type: organism-based; parameters: dose 5 mg/kg, route oral; conditions: in vivo, 360 h
[11] = tested on: Rattus norvegicus; experiment: Effect on StAR expression in Rattus norvegicus Wistar albino (rat) Leydig cells at 5 mg/kg, po after 15 days by immunocytochemistry analysis relative to untreated control; type: functional, organism-based; parameters: dose 5 mg/kg
[12] = tested on: Rattus norvegicus; experiment: Induction of steroidogenesis in Rattus norvegicus Wistar albino (rat) Leydig cells assessed as increase in pregnenolone-induced testosterone level at 5 mg/kg, po after 15 days by radioimmunoassay (reference value: 34 +/- 5.49 no unit); type: functional

COc1cccc(OC)c1/C=C1\SC(=O)N(Cc2ccc(C)cc2)C1=O
testosterone level [1]: 118.3 | Activity [2]: inactive | testosterone level [3]: 154.16 | Activity [4]: Non-toxic | Activity [5]: Non-toxic | Activity [6]: Non-toxic | testosterone level [7]: 164.1 | Activity [8]: 7.7 ng/mL | Activity [9]: Non-toxic | Activity [10]: Non-toxic | Activity [11]: inactive | testosterone level [12]: 56.66
